# Results published in patent US12703706B2, “Anthelmintic compounds comprising a thienopyridine structure” (Intervet Inc., priority 2020, dated 2026).
# Tested on: Haemonchus contortus
# Assay: In vivo efficacy against Haemonchus contortus in jirds
# Conditions: in Meriones unguiculatus, 72 h, read-out: reduction of the Haemonchus contortus count
# Experimental: In Vivo Assay: Efficacy Against Haemonchus contortus in Jirds
# The jirds were orally infected with approximately 1500 third-stage larvae of Haemonchus contortus. Ten days after infection, the jirds in the treatment groups were treated once either orally or subcutaneously with compounds at a dose of 10 mg per kg bodyweight. For treatment, compounds were dissolved in a mixture of 10% Transcutol, 10% Cremophor EL and 80% physiological sodium chloride solution. Three days after treatment, the jirds were necropsied, and the larvae burden in the stomach was determined. The efficacy was defined as the reduction of the mean larvae count in the infected jirds of the treatment group in comparison to the infected jirds in an untreated control group (negative control).
row,Compound,inhibition in vivo at 10 mg/kg
1,Cc1sc2c(N3CCOCC3)c(C(=O)N[C@H]3CCOc4ccccc43)cnc2c1-c1cc(Cl)cc(Cl)c1 [Compound 68],≥ 80%
2,Cc1sc2c(N(C)C)c(C(=O)N[C@H]3CCOc4ccccc43)cnc2c1-c1cc(F)cc(F)c1F [Compound 102],≥ 80%

# Target: human Maxi K channel (BK channel), KCNMA1 (KCa1.1) and beta1 (KCNMB1) subunits (Homo sapiens, UniProt Q12791)
# Sequence (Q12791 1-1178 isoform Q12791-5): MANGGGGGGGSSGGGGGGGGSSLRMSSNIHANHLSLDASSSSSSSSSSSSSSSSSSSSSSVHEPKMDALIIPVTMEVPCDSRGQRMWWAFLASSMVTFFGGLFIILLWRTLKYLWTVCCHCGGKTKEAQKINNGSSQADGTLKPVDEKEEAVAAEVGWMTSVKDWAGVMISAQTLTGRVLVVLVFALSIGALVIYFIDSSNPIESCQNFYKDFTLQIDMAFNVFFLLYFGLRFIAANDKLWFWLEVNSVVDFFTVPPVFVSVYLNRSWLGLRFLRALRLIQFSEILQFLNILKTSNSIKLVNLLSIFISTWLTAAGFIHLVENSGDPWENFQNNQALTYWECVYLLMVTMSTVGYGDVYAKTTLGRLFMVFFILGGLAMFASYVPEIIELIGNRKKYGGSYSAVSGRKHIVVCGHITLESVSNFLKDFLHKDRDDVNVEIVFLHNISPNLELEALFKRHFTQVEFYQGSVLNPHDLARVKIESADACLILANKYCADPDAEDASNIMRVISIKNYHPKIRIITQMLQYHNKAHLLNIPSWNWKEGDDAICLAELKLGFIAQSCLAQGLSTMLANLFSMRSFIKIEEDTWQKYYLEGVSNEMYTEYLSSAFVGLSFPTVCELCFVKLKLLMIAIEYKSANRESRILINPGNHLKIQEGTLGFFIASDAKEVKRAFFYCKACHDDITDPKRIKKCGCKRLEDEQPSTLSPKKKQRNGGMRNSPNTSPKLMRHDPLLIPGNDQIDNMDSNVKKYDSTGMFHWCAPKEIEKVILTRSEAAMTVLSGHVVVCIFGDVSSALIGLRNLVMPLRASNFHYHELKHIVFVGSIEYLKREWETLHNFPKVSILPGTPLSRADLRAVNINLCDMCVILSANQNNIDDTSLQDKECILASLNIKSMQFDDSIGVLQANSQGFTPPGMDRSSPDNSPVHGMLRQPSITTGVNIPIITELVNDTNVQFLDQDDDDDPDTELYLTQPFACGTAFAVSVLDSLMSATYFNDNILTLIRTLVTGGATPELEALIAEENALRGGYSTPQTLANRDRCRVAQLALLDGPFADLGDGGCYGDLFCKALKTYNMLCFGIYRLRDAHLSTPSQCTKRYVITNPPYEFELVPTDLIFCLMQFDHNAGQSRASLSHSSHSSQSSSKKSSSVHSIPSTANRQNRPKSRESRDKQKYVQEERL
# Sequence (Q16558 whole entry partner): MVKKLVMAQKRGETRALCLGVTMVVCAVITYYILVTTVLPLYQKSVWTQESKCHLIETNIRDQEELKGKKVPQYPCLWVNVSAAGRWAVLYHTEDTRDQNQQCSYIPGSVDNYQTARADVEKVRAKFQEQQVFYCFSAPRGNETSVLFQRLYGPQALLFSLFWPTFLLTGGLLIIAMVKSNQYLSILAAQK
# Assay: not given
# Conditions: not given
row,Compound,EC50
1,Cc1sc2c(N3CCOCC3)c(C(=O)N[C@H]3CCOc4ccccc43)cnc2c1-c1cc(Cl)cc(Cl)c1 [Compound 68],> 30 µM
2,Cc1sc2c(N(C)C)c(C(=O)N[C@H]3CCOc4ccccc43)cnc2c1-c1cc(F)cc(F)c1F [Compound 102],> 30 µM
3,COc1cccc(-c2csc3c(N(C)C)c(C(=O)N[C@H]4CCOc5ccccc54)cnc23)c1 [Compound 48],> 30 µM
4,O=C(N[C@H]1CCOc2ccccc21)c1cnc2c(-c3cccc(F)c3F)csc2c1NC1CC1 [Compound 87],> 30 µM
5,COc1cccc(-c2csc3c(N4CCOCC4)c(C(=O)N[C@H]4CCOc5ccccc54)cnc23)c1 [Compound 43],> 30 µM
6,CN(C)c1c(C(=O)NC2COc3ccccc32)cnc2c(-c3cc(Cl)cc(Cl)c3)csc12 (stereo not drawn) [Compound 96],> 30 µM
7,Cc1sc2c(N3CCOCC3)c(C(=O)N[C@H]3CCc4ccccc43)cnc2c1-c1cccc(Cl)c1Cl [Compound 73],> 30 µM
8,CN1CCN(c2c(C(=O)N[C@H]3CCOc4ccccc43)cnc3c(-c4cc(Cl)cc(Cl)c4)csc23)CC1 [Compound 19],> 30 µM
9,O=C(Nc1cccc2ccccc12)c1cnc2c(-c3cc(Cl)cc(Cl)c3)csc2c1N1CCOCC1 [Compound 49],> 30 µM
10,Cc1sc2c(N3CC(F)C3)c(C(=O)N[C@H]3CCCc4ccccc43)cnc2c1-c1cc(Cl)cc(Cl)c1 [Compound 64],> 30 µM
11,Cc1sc2c(N3CC(F)(F)C3)c(C(=O)N[C@H]3CCc4ccccc43)cnc2c1-c1cccc(Cl)c1Cl [Compound 57],> 30 µM
12,CN(C)c1c(C(=O)N[C@H]2CCOc3ccccc32)cnc2c(-c3cccc(F)c3F)csc12 [Compound 46],> 30 µM
13,Cc1sc2c(N(C)C)c(C(=O)N[C@H]3CCOc4ccccc43)cnc2c1-c1cc(F)cc(F)c1 [Compound 103],> 30 µM
14,Cc1sc2c(N(C)C)c(C(=O)N[C@H]3CCCc4ccccc43)cnc2c1-c1cc(Cl)cc(Cl)c1 [Compound 38],> 30 µM
15,O=C(N[C@H]1CCOc2ccccc21)c1cnc2c(-c3cc(F)cc(F)c3)csc2c1NC1CC1 [Compound 86],> 30 µM
16,O=C(NC1COc2ccccc21)c1cnc2c(-c3cc(Cl)cc(Cl)c3)csc2c1N1CCOCC1 (stereo not drawn) [Compound 81],> 30 µM
17,Cc1sc2c(N3CCOCC3)c(C(=O)Nc3cccc4ccccc34)cnc2c1-c1cccc(Cl)c1Cl [Compound 74],> 30 µM
18,O=C(N[C@H]1CCCc2ccccc21)c1cnc2c(-c3cccc(Cl)c3Cl)csc2c1N1CCOCC1 [Compound 13],5 to 10 µM
19,Cc1sc2c(N(C)C)c(C(=O)N[C@H]3CCc4ccccc43)cnc2c1-c1cc(Cl)cc(Cl)c1 [Compound 33],> 30 µM
20,CN1CCN(c2c(C(=O)N[C@H]3CCc4ccccc43)cnc3c(-c4cc(Cl)cc(Cl)c4)csc23)CC1 [Compound 29],> 30 µM
21,CN(C)c1c(C(=O)NC2COc3ccccc32)cnc2c(-c3cccc(Cl)c3Cl)csc12 (stereo not drawn) [Compound 78],> 30 µM
22,Cc1sc2c(N(C)C)c(C(=O)N[C@H]3CCc4ccccc43)cnc2c1-c1cccc(Cl)c1Cl [Compound 34],> 30 µM
23,CN(C)c1cccc(-c2csc3c(N(C)C)c(C(=O)N[C@H]4CCOc5ccccc54)cnc23)c1 [Compound 98],> 30 µM
24,O=C(N[C@H]1CCOc2ccccc21)c1cnc2c(-c3cccc(Cl)c3Cl)csc2c1N1CC(F)(F)C1 [Compound 26],> 30 µM
25,Cc1sc2c(N3CCOCC3)c(C(=O)Nc3cccc4ccccc34)cnc2c1-c1cc(Cl)cc(Cl)c1 [Compound 70],> 30 µM
26,O=C(N[C@@H]1COc2ccccc21)c1cnc2c(-c3cc(Cl)cc(Cl)c3)csc2c1N1CCOCC1 [Compound 100],> 30 µM

row,Compound,EC50
1,Cc1sc2c(N3CCOCC3)c(C(=O)N[C@H]3CCc4ccccc43)cnc2c1-c1cccc(C(F)(F)F)c1 [Compound 112],> 30 µM
2,Cc1sc2c(N(C)C)c(C(=O)Nc3cccc4ccccc34)cnc2c1-c1cc(Cl)cc(Cl)c1 [Compound 54],> 30 µM
3,Cc1sc2c(N3CCOCC3)c(C(=O)N[C@H]3CCOc4ccccc43)cnc2c1-c1cccc(C(F)(F)F)c1 [Compound 108],> 30 µM
4,Cc1sc2c(N3CCOCC3)c(C(=O)N[C@H]3CCc4ccccc43)cnc2c1-c1cc(F)cc(F)c1F [Compound 110],> 30 µM
5,CN(C)c1c(C(=O)N[C@H]2CCCc3ccccc32)cnc2c(-c3cc(Cl)cc(Cl)c3)csc12 [Compound 31],> 30 µM
6,Cc1sc2c(N(C)C)c(C(=O)N[C@H]3CCOc4ccccc43)cnc2c1-c1cccc(OC(F)(F)F)c1 [Compound 105],> 30 µM
7,CN(C)c1c(C(=O)N[C@H]2CCOc3ccccc32)cnc2c(-c3cc(Cl)cc(Cl)c3)csc12 [Compound 7],> 30 µM
8,C[C@H](NC(=O)c1cnc2c(-c3cccc(Cl)c3Cl)csc2c1N1CCOCC1)c1ccccc1 [Compound 5],> 30 µM
9,CN(C)c1c(C(=O)Nc2cccc3ccccc23)cnc2c(-c3cc(Cl)cc(Cl)c3)csc12 [Compound 50],> 30 µM
10,CN(C)c1c(C(=O)N[C@H]2CCOc3ccccc32)cnc2c(-c3cccc(C(F)(F)F)c3)csc12 [Compound 47],> 30 µM
11,O=C(N[C@H]1CCCc2ccccc21)c1cnc2c(-c3cc(Cl)cc(Cl)c3)csc2c1N1CCOCC1 [Compound 32],> 30 µM
12,O=C(N[C@H]1CCc2ccccc21)c1cnc2c(-c3cc(F)cc(F)c3F)csc2c1N1CC(F)(F)C1 [Compound 41],> 30 µM
13,O=C(N[C@H]1CCOc2ccccc21)c1cnc2c(-c3cc(F)cc(F)c3F)csc2c1N1CC(F)(F)C1 [Compound 40],> 30 µM
14,CN(C)c1c(C(=O)N[C@H]2CCc3ccccc32)cnc2c(-c3cc(Cl)cc(Cl)c3)csc12 [Compound 9],> 30 µM
15,CN(C)c1c(C(=O)N[C@H]2CCOc3ccccc32)cnc2c(-c3cc(F)cc(F)c3F)csc12 [Compound 23],> 30 µM
16,Cc1sc2c(N3CC(F)(F)C3)c(C(=O)N[C@H]3CCCc4ccccc43)cnc2c1-c1cccc(Cl)c1Cl [Compound 55],> 30 µM
17,Cc1cccc(-c2csc3c(N(C)C)c(C(=O)N[C@H]4CCOc5ccccc54)cnc23)c1C [Compound 75],> 30 µM
18,CN(C)c1c(C(=O)N[C@H]2CCOc3ccccc32)cnc2c(-c3cccc(OC(F)(F)F)c3)csc12 [Compound 97],> 30 µM
19,CN(C)c1c(C(=O)N[C@H]2CCc3ccccc32)cnc2c(-c3cc(F)cc(F)c3F)csc12 [Compound 25],> 30 µM
20,O=C(N[C@H]1CCOc2ccccc21)c1cnc2c(-c3cc(F)cc(F)c3)csc2c1N1CC(F)C1 [Compound 92],> 30 µM
21,CN1CCN(c2c(C(=O)NC3CCCc4ccccc43)cnc3c(-c4cc(Cl)cc(Cl)c4)csc23)CC1 (stereo not drawn) [Compound 30],> 30 µM
22,O=C(N[C@H]1CCOc2ccccc21)c1cnc2c(-c3cc(F)cc(F)c3F)csc2c1NCCO [Compound 94],> 30 µM
23,CN1CCN(c2c(C(=O)NC3CCOc4ccccc43)cnc3c(-c4cccc(Cl)c4Cl)csc23)CC1 (stereo not drawn) [Compound 20],> 30 µM
24,Cc1cccc(-c2csc3c(N4CCOCC4)c(C(=O)N[C@H]4CCOc5ccccc54)cnc23)c1C [Compound 44],> 30 µM
25,O=C(N[C@H]1CCOc2ccccc21)c1cnc2c(-c3cc(Cl)cc(Cl)c3)csc2c1N1CC(F)C1 [Compound 101],> 30 µM
26,O=C(N[C@H]1CCOc2ccccc21)c1cnc2c(-c3cccc(C(F)(F)F)c3)csc2c1NC1CC1 [Compound 89],> 30 µM
